Molecular target: T1, TNF-α (Homo sapiens, UniProt P01375)
T1 construct: purchased R&D 210-TA-020/CF
Assay: TNF-α Induced HEK Blue Cellular Assay (secreted alkaline phosphatase expression, QUANTI-Blue)
Assay type: cell-based
Details: HEK Blue TNFα reporter cells; TNF-α 100 μg/ml; 24 hrs at 37° C.; inhibition of secreted alkaline phosphatase; read-out: IC50 value
How it was run: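 HEK Blue TNFα reporter cells (10,000/well) in DMEM with 10% FBS received compound ([…] to 0.5 nM final) and TNF-α at […] final for 24 h at 37° C. Secreted alkaline phosphatase read with QUANTI-Blue at 620 nm. IC50 came from a 4-parameter logistic fit after normalising to unstimulated and stimulated DMSO controls.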

T1 sequence (P01375 77-233 limits assumed): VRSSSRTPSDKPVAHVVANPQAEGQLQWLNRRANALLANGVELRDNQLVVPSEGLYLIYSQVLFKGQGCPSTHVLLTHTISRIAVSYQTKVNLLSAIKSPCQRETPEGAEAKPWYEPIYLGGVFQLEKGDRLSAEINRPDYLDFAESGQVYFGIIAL

SMILES | IC50 [µM]
[2H]C([2H])([2H])N1C(=O)c2cccc(OC(F)F)c2[C@H]2C[C@@H]1c1nc3ccc(C#C[C@@H](C)O)cc3n12 [Example 179, (7R,14R)-1-(difluoromethoxy)-11-((R)-3-hydroxybut-1-yn-1-yl)-6-(methyl-d3)-6,7-dihydro-7,14-methanobenzo[f]benzo[4,5]imidazo[1,2-a][1,4]diazocin-5(14H)-one] | 10 to 30
[2H]C([2H])([2H])N1C(=O)c2cccc(OC(F)F)c2[C@H]2C[C@@H]1c1nc3ccc(C#CC4CCN(S(C)(=O)=O)CC4)cc3n12 [Example 185, (7R,14R)-1-(difluoromethoxy)-6-(methyl-d3)-11-((1-(methylsulfonyl)piperidin-4-yl)ethynyl)-6,7-dihydro-7,14-methanobenzo[f]benzo[4,5]imidazo[1,2-a][1,4]diazocin-5(14H)-one] | < 0.1
[2H]C([2H])([2H])N1C(=O)c2cccc(OC(F)F)c2[C@H]2C[C@@H]1c1nc3ccc(C#CC4CCN(C(=O)C(C)(C)O)CC4)cc3n12 [Example 186, (7R,14R)-1-(difluoromethoxy)-11-((1-(2-hydroxy-2-methylpropanoyl)piperidin-4-yl)ethynyl)-6-(methyl-d3)-6,7-dihydro-7,14-methanobenzo[f]benzo[4,5]imidazo[1,2-a][1,4]diazocin-5(14H)-one] | < 0.1
[2H]C([2H])([2H])N1C(=O)c2cccc(OC(F)F)c2[C@H]2C[C@@H]1c1nc3ccc(C#CC4CCN(C(=O)C5(O)CC5)CC4)cc3n12 [Example 187, (7R,14R)-1-(difluoromethoxy)-11-((1-(1-hydroxycyclopropane-1-carbonyl)piperidin-4-yl)ethynyl)-6-(methyl-d3)-6,7-dihydro-7,14-methanobenzo[f]benzo[4,5]imidazo[1,2-a][1,4]diazocin-5(14H)-one] | < 0.1
[2H]C([2H])([2H])N1C(=O)c2cccc(OC(F)F)c2[C@H]2C[C@@H]1c1nc3ccc(C#CC4(C(F)F)CC4)cc3n12 [Example 188, (7R,14R)-1-(difluoromethoxy)-11-((1-(difluoromethyl)cyclopropyl)ethynyl)-6-(methyl-d3)-6,7-dihydro-7,14-methanobenzo[f]benzo[4,5]imidazo[1,2-a][1,4]diazocin-5(14H)-one] | 0.1 to 1
[2H]C([2H])([2H])N1C(=O)c2cccc(OC(F)F)c2[C@H]2C[C@@H]1c1nc3ccc(C#CC(C)(C)CO)cc3n12 [Example 191, (7R,14R)-1-(difluoromethoxy)-11-(4-hydroxy-3,3-dimethylbut-1-yn-1-yl)-6-(methyl-d3)-6,7-dihydro-7,14-methanobenzo[f]benzo[4,5]imidazo[1,2-a][1,4]diazocin-5(14H)-one] | 10 to 30
[2H]C([2H])([2H])N1C(=O)c2cccc(OC(F)F)c2[C@H]2C[C@@H]1c1nc3ccc(C#CC4CN(C(=O)C(C)(C)C#N)C4)cc3n12 [Example 193, 3-(3-(((7R,14R)-1-(difluoromethoxy)-6-(methyl-d3)-5-oxo-5,6,7,14-tetrahydro-7,14-methanobenzo[f]benzo[4,5]imidazo[1,2-a][1,4]diazocin-11-yl)ethynyl)azetidin-1-yl)-2,2-dimethyl-3-oxopropanenitrile] | 0.1 to 1
[2H]C([2H])([2H])N1C(=O)c2cccc(OC(F)F)c2[C@H]2C[C@@H]1c1nc3ccc(C#CC4CN(C(=O)C5CC5(F)F)C4)cc3n12 (stereo partly drawn) [Example 194, (7R,14R)-11-((1-(2,2-difluorocyclopropane-1-carbonyl)azetidin-3-yl)ethynyl)-1-(difluoromethoxy)-6-(methyl-d3)-6,7-dihydro-7,14-methanobenzo[f]benzo[4,5]imidazo[1,2-a][1,4]diazocin-5(14H)-one] | 10 to 30

Now from value to molecule:

IC50 [µM] | SMILES
10 to 30 | [2H]C([2H])([2H])N1C(=O)c2cccc(OC(F)F)c2[C@H]2C[C@@H]1c1nc3ccc(C#CC4(C)CCN(C(C)=O)CC4)cc3n12 [Example 180, (7R,14R)-11-((1-acetyl-4-methylpiperidin-4-yl)ethynyl)-1-(difluoromethoxy)-6-(methyl-d3)-6,7-dihydro-7,14-methanobenzo[f]benzo[4,5]imidazo[1,2-a][1,4]diazocin-5(14H)-one]
10 to 30 | [2H]C([2H])([2H])N1C(=O)c2cccc(OC(F)F)c2[C@H]2C[C@@H]1c1nc3ccc(C#CC4(C)CCN(C(=O)C5CC5)CC4)cc3n12 [Example 181, (7R,14R)-11-((1-(cyclopropanecarbonyl)-4-methylpiperidin-4-yl)ethynyl)-1-(difluoromethoxy)-6-(methyl-d3)-6,7-dihydro-7,14-methanobenzo[f]benzo[4,5]imidazo[1,2-a][1,4]diazocin-5(14H)-one]
0.1 to 1 | [2H]C([2H])([2H])N1C(=O)c2cccc(OC(F)F)c2[C@H]2C[C@@H]1c1nc3ccc(C#CC4(C)CCN(C(=O)C5(C)CC5)C4)cc3n12 (stereo partly drawn) [Example 182, (7R,14R)-1-(difluoromethoxy)-6-(methyl-d3)-11-((3-methyl-1-(1-methylcyclopropane-1-carbonyl)pyrrolidin-3-yl)ethynyl)-6,7-dihydro-7,14-methanobenzo[f]benzo[4,5]imidazo[1,2-a][1,4]diazocin-5(14H)-one]
< 0.1 | [2H]C([2H])([2H])N1C(=O)c2cccc(OC(F)F)c2[C@H]2C[C@@H]1c1nc3ccc(C#CC4CCCN(C(C)=O)C4)cc3n12 (stereo partly drawn) [Example 183, (7R,14R)-11-((1-acetylpiperidin-3-yl)ethynyl)-1-(difluoromethoxy)-6-(methyl-d3)-6,7-dihydro-7,14-methanobenzo[f]benzo[4,5]imidazo[1,2-a][1,4]diazocin-5(14H)-one]
< 0.1 | [2H]C([2H])([2H])N1C(=O)c2cccc(OC(F)F)c2[C@H]2C[C@@H]1c1nc3ccc(C#CC4CCCN(C(=O)C5CC5)C4)cc3n12 (stereo partly drawn) [Example 184, (7R,14R)-11-((1-(cyclopropanecarbonyl)piperidin-3-yl)ethynyl)-1-(difluoromethoxy)-6-(methyl-d3)-6,7-dihydro-7,14-methanobenzo[f]benzo[4,5]imidazo[1,2-a][1,4]diazocin-5(14H)-one]
10 to 30 | [2H]C([2H])([2H])N1C(=O)c2cccc(OC(F)F)c2[C@H]2C[C@@H]1c1nc3ccc(C#CC4(C)CCN(C(=O)C5CC5)C4)cc3n12 (stereo partly drawn) [Example 189, (7R,14R)-11-((1-(cyclopropanecarbonyl)-3-methylpyrrolidin-3-yl)ethynyl)-1-(difluoromethoxy)-6-(methyl-d3)-6,7-dihydro-7,14-methanobenzo[f]benzo[4,5]imidazo[1,2-a][1,4]diazocin-5(14H)-one]
0.1 to 1 | [2H]C([2H])([2H])N1C(=O)c2cccc(OC(F)F)c2[C@H]2C[C@@H]1c1nc3ccc(C#CC4(C)CCN(C(=O)C(C)(C)C)C4)cc3n12 (stereo partly drawn) [Example 190, (7R,14R)-1-(difluoromethoxy)-6-(methyl-d3)-11-((3-methyl-1-pivaloylpyrrolidin-3-yl)ethynyl)-6,7-dihydro-7,14-methanobenzo[f]benzo[4,5]imidazo[1,2-a][1,4]diazocin-5(14H)-one]
10 to 30 | [2H]C([2H])([2H])N1C(=O)c2cccc(OC(F)F)c2[C@H]2C[C@@H]1c1nc3ccc(C#CC4(C)CCN(C(=O)C(C)(C)O)C4)cc3n12 (stereo partly drawn) [Example 192, (7R,14R)-1-(difluoromethoxy)-11-((1-(2-hydroxy-2-methylpropanoyl)-3-methylpyrrolidin-3-yl)ethynyl)-6-(methyl-d3)-6,7-dihydro-7,14-methanobenzo[f]benzo[4,5]imidazo[1,2-a][1,4]diazocin-5(14H)-one]
